Source: patent US20130158111A1, “Compositions and Methods for Depleting Mutant p53” (Georgetown University, priority 2011, published 2013)

Key:
[1] = target: T1, mutant p53 in MDA-MB-231 breast cancer cells (Homo sapiens, UniProt P04637, R280K); assay: Immunoblot of mutant p53 in MDA-MB-231 cells treated with ITCs; type: cell-based; conditions: for depletion of mutant p53 (FIG. 3B-E): H596 20 μM / MDA-MB-231 10 μM ITCs
T1 construct: host or cells: MDA-MB-231
Source text: (§1) Human H596, A549, HCT116, MDA-MB-231, MDA-MB-468, MCF-7, DU145, MCF-10A, SW480, and SCC-4 cells were obtained from ATCC (Manassas, Va.). H1299-175H cells were kindly provided by Dr. Maria Laura Avantaggiati (Georgetown University). Cells were maintained in DMEM or RPMI-1640 medium supplemented with 10% FBS (Hyclone). […] 2,2-Diphenylethyl ITC, 4-phenoxybenzyl ITC, 4-methoxybenzyl ITC, 4-chlorobenzyl ITC, Dα-methylbenzyl ITC, trityl ITC, and 3-phenylpropyl ITC were purchased from Trans World Chemicals (Rockville, Md.). Erucin and 4-phenylbutyl ITC were from LKT Laboratories, Inc. (St. Paul, Minn.). […] The p53 DO-1 and β-actin antibodies were purchased from Santa Cruz Biotechnology (Santa Cruz, Calif.), horseradish peroxidase-labeled goat antimouse secondary antibodies were purchased from GE-Healthcare (Pittsburgh, Pa.), and Bio-Rad Protein Assay was from Bio-Rad (Hercules, Calif.).
(§2) Whole cell lysates were prepared in lysis buffer (20 mM HEPES, pH 7.4, 2 mM EGTA, 50 mM β-glycerol phosphate, 1% Triton X-100, 10% glycerol, 1 mM DTT, 1 mM PMSF, […], 1 mM Na3-VO4, and 5 mM NaF). For immunoblot analysis, equal amounts of protein were resolved on 4-12% NuPAGE BisTris gels (Invitrogen) and transferred to PVDF membranes (Millipore). The membranes were blocked with 5% milk in TBST and were then probed with p53 (DO-1) or β-actin antibody. Proteins were detected using enhanced chemiluminescence (ECL) reagents (GE Healthcare).

[2] = tested on: MDA-MB-231 breast cancer cells; assay: FITC-annexin V / propidium iodide apoptosis assay; type: cell-based, Human; conditions: MDA-MB-231, 10 μM, 24 h; for induction of apoptosis vs DMSO: p<0.05
Protocol: Then, 100 μL of each sample was added to a 5 mm tube, and the annexin V apoptosis kit protocol was followed. Samples were immediately analyzed with flow cytometry.

[3] = target: T2, mutant (G245C) p53 DNA-binding domain (Homo sapiens, UniProt P04637, G245C); assay: Monochlorobimane fluorometric cysteine binding assay; conditions: 100 μM ITC, 1 h, 32 C; compared with trityl ITC, cyclohexylmethyl ITC, SFN, AITC, and PITC (p<0.05)
T2 construct: made in house; host or cells: Escherichia coli BL21
Protocol: BL21 […] Escherichia coli were transformed with pET29b wild-type or mutant (G245C) p53 DNA binding domain (DBD) plasmids. The E. coli were then cultured in LB media supplemented with 100 μM ZnCl2 and 25 μg/mL kanamycin at 37° C. until OD600=0.6-0.8. Protein expression was induced by 0.1 mM isopropyl β-D-1-thiogalactopyranoside for 16 h at 37 gC for wild-type and 16 gC for mutant p53. Bacterial pellets were then harvested by centrifugation at 5000×g, 10 min, 4 gC, and lysed via sonication in 50 mM Tris, 50 mM KCl, 5 mM dithiothreitol, 1 mM PMSF, pH 7 buffer. The soluble fraction was passed through a Capto S cation exchange column (GE Healthcare) and eluted with 50 mM Tris, 200 mM KCl, 5 mM DTT, pH 7. Eluted protein was dialyzed overnight against a non-salt dialysis buffer (50 mM Tris, 5 mM DTT, pH 7) and loaded onto a HiTrap Heparin HP column (GE Healthcare). The p53 DBD was purified via a AKTApurifier-10 protein liquid chromatography system (GE Healthcare) with an increasing KCl salt gradient, and purity was tested by SDSPAGE and Coomassie blue staining. Purified protein was dialyzed in PBS, and protein concentrations were determined prior to performing fluorescence experiments.
In a white 96-well plate, 100 μL of purified mutant (G245C) p53 DNA-binding domain protein in PBS was treated with DMSO, 100 μM ITCs in DMSO, or 500 μM iodoacetamide (positive binding control). An additional well containing 100 μL of PBS was used to determine background. Samples were incubated with compounds in the dark for 1 h at 32 gC, after which […] of 10 mM monochlorobimane was added (in the dark), and samples were further incubated in the dark at 32 gC for 30 min. Fluorescence readings were then obtained using a BIO-TEK Synergy HT plate reader (λex 380 nm; λem 485 nm).

[4] = target: T3, mutant p53 protein in H596 (G245C) non-small-cell lung cancer cells (Homo sapiens, UniProt P04637, G245C); assay: Immunoblot of mutant p53 protein in H596 cells; type: cell-based
T3 construct: host or cells: H596
Source text: as §1, §2

## S=C=NCC(c1ccccc1)c1ccccc1 [2,2-diphenylethyl ITC, 2,2-diphenylethyl isothiocyanate]
[1]; FIG. 3B-E
  rank as depletor of mutant p53 among ITCs studied: most potent
[1]
  depletion of mutant p53 (FIG. 3B-E): deplete mutant p53
[2]
  induction of apoptosis vs DMSO: greater induction of apoptosis
[2]; p<0.05 compared with BITC
  rank as inducer of apoptosis: strongest inducer of apoptosis
[3]
  binding affinity for mutant (G245C) p53 DBD (free thiols, relative fluorescence): greater binding affinities

## S=C=NCCCc1ccccc1 [3-PPITC, 3-phenylpropyl ITC]
[1]
  depletion of mutant p53 (FIG. 3B-E): deplete mutant p53
[2]
  induction of apoptosis vs DMSO: greater induction of apoptosis
[3]
  binding affinity for mutant (G245C) p53 DBD (free thiols, relative fluorescence): greater binding affinities

## S=C=NCCCCc1ccccc1 [4-PBITC, 4-phenylbutyl ITC]
[1]
  depletion of mutant p53 (FIG. 3B-E): deplete mutant p53
[2]
  induction of apoptosis vs DMSO: greater induction of apoptosis

## S=C=NCc1ccc(Cl)cc1 [4-chlorobenzyl ITC]
[3]
  binding affinity for mutant (G245C) p53 DBD (free thiols, relative fluorescence): greater binding affinities

## COc1ccc(CN=C=S)cc1 [4-methoxybenzyl ITC]
[3]
  binding affinity for mutant (G245C) p53 DBD (free thiols, relative fluorescence): greater binding affinities

## S=C=NCc1ccccc1 [BITC, benzyl isothiocyanate]
[1]
  depletion of mutant p53 (FIG. 3B-E): deplete mutant p53
[1]; MDA-MB-231, 10 μM ITCs, 24 h, compared with DMSO control
  depletion of mutant p53 at equimolar concentrations: approximately the same extent
[4]; H596, 10 μM, 2 h
  level of mutant p53: significantly reduced
[4]; H596, 20 μM ITCs, 24 h, compared with DMSO control
  depletion of mutant p53 at equimolar concentrations: approximately the same extent
[2]
  induction of apoptosis vs DMSO: greater induction of apoptosis
[3]
  binding affinity for mutant (G245C) p53 DBD (free thiols, relative fluorescence): greater binding affinities

## CNCCc1ccccc1 [NMPEA, N-methylphenethylamine, reference compound]
[4]; H596, 15 μM, up to 24 h
  mutant p53 protein level: failed to alter
[4]; H596, 60 μM for 2 h
  mutant p53 protein level: failed to alter
